The test system of one experiment is S. aureus ATCC 6538. Briefly: Monospecies bacterial biofilm inhibition, static peg assay (Calgary device, crystal violet; planktonic OD600). It is filed as cell-based, Staphylococcus aureus. As to the method:
(§1) A static peg assay, described previously ([27], [74]), was used for bacterial biofilm formation. The Calgary biofilm device consists of a platform carrying 96 polystyrene pegs (Nunc no. 445497) that fits as a microtiter plate lid, with 1 peg hanging into each microtiter plate well (Nunc no. 269789). Twofold serial dilutions of the compounds (dissolved in 100% dimethyl sulfoxide [DMSO] or ethanol) in 100 μl liquid broth (TSB diluted 1/20) per well were prepared in the microtiter plate in duplicate or triplicate with a maximum concentration of 1,600 μM and a minimum concentration of 0.8 μM. Subsequently, an overnight culture of S. Typhimurium ATCC 14028, P. aeruginosa PA14, E. coli TG1, S. epidermidis, S. aureus SH1000, or S. aureus ATCC 6538 (all grown in LB) was diluted 1:100 into TSB diluted 1/20 (or TSB for S. epidermidis, S. aureus SH1000, and S. aureus ATCC 6538), whereas overnight cultures of S. liquefaciens MG44 and B. cepacia LMG1222T were diluted 1:50 into TSB diluted 1/20. P. gingivalis ATCC 33277 cultures were diluted in TSB diluted 1/20 to have a final concentration of 1 × 10^8 cells/ml. Next, 100 μl was added to each well of the microtiter plate, resulting in a total volume of 200 μl medium per well (final concentration range of compounds, 800 μM [2% DMSO or ethanol] to 0.4 μM [0.001% DMSO or ethanol]). In the next step, the pegged lid was placed on the microtiter plate and the plate was incubated for 24 h or 48 h at 25°C or 37°C without shaking. At 37°C, the plates were placed in a sealed container with wet towels on the bottom to prevent evaporation of the growth medium. Biofilms of P. gingivalis ATCC 33277 were grown anaerobically at 37°C for 72 h. During this incubation period, biofilms were formed on the surface of the pegs. After incubation, the optical density at 600 nm (OD600) for the planktonic cells in the microtiter plate was measured using a Synergy MX multimode reader (BioTek, Winooski, VT). This gives a first indication of the effect of the compounds on planktonic growth. For quantification of biofilm formation, the pegs were washed once in 200 μl PBS. The remaining attached bacteria were stained for 30 min with 200 μl 0.1% (wt/vol) crystal violet in an isopropanol-methanol-PBS solution (1:1:18, vol/vol). Excess stain was rinsed off by placing the pegs in a 96-well plate filled with 200 μl distilled water per well. After air drying of the pegs (30 min), the dye bound to the adherent biofilm was extracted with 30% glacial acetic acid (200 μl per well of a 96-well plate). The optical density at 570 nm (OD570) of each well was measured using a Synergy MX multimode reader (BioTek, Winooski, VT). The concentration of each compound needed to inhibit biofilm formation by 50% (BIC50) and the concentration of each compound needed to inhibit planktonic growth by 50% (IC50) were determined from the concentration gradient by using nonlinear curve fitting (GraphPad Prism software, version 5; GraphPad Software, Inc., La Jolla, CA). In the same assay, the effect on planktonic growth was evaluated. The activity was considered biofilm specific if the BIC50 was at least two times lower than the IC50. Data represent the means from at least 3 technical repeats with the corresponding 95% confidence intervals (provided in the supplemental material).

Experiment [1] has as its system S. aureus SH1000. The experiment is described as follows: Monospecies bacterial biofilm inhibition, static peg assay. It is filed as cell-based, Staphylococcus aureus. The procedure:
as §1

Another experiment has as its system S. epidermidis. The description is as above. The following applies: 37°C. It is filed as cell-based, Staphylococcus epidermidis. As to the method:
as §1

The next experiment relates to E. coli TG1. The description is as above. It is filed as cell-based, Escherichia coli. The procedure: as §1
Another experiment deals with P. aeruginosa PA14. The description is as above. The class given is cell-based, Pseudomonas aeruginosa. As to the method: as §1
Experiment [2] has as its system S. Typhimurium ATCC 14028. The description is as above. The following applies: S. Typhimurium ATCC 14028, 25°C. It is filed as cell-based, Salmonella enterica serovar Typhimurium. The procedure: as §1
For the next experiment, the system named is S. liquefaciens MG44. The description is as above. The class given is cell-based, Serratia liquefaciens. Particulars: S. liquefaciens MG44, 25°C. As to the method: as §1
The test system of another experiment is B. cepacia LMG1222T. The experiment is described as above. The class given is cell-based, Burkholderia cepacia. Particulars: 25°C. The procedure:
as §1

In a further experiment the test system is C. albicans SC5314. The experiment is described as follows: Inhibition of C. albicans biofilms, CellTiter-Blue quantification. The class given is cell-based, Candida albicans. Particulars: C. albicans SC5314, 37°C, CTB method, read-out: BIC50 (μM) for C. albicans SC5314 (37°C). As to the method:
The potential of the compounds to prevent C. albicans SC5314 biofilm formation was assessed using the CellTiter-Blue (CTB) quantification method ([75]). […]. Twofold serial dilutions of the compounds (dissolved in 100% DMSO or ethanol) in 100 μl RPMI 1640 medium per well were prepared in a round-bottom polystyrene 96-well microtiter plate (TPP; Trasadingen, Switzerland) in duplicate or triplicate with a maximum concentration of 1,600 μM and a minimum concentration of 0.8 μM. One hundred microliters of the cell suspension was added to each well of the microtiter plate, resulting in a total volume of 200 μl medium per well (final concentration range of compounds, 800 μM [2% DMSO or ethanol] to 0.4 μM [0.001% DMSO or ethanol]). After 16 h of static incubation at 37°C, the biofilms were washed and quantified by the CTB method as described previously ([73]).

In another experiment the test system is P. aeruginosa PAO1. The following applies: cited from earlier work.
Another experiment concerns CsgD. Particulars: S. Typhimurium, first 24 h of biofilm formation; cited from earlier work.
Experiment [3] has as its system S. aureus SH1000. Further details: method as in PMID 23208606, PMID 19959627. The following applies: cited from earlier work.
The next experiment concerns E. coli VR50. More on the design: method as in PMID 23208606, PMID 19959627. The following applies: cited from earlier work.
The next experiment has as its system E. coli F18. Further details: method as in PMID 23208606, PMID 19959627. Particulars: cited from earlier work.
The mark [4] stands for this setting: Staphylococcus aureus, ATCC6538, read-out: BIC50 (concentration needed to inhibit biofilm formation by 50%), S. aureus ATCC 6538, 37°C.
Where [5] appears, read: Staphylococcus aureus, ATCC6538, read-out: IC50 (concentration needed to inhibit planktonic growth by 50%), S. aureus ATCC 6538, 37°C, planktonic OD600.
The mark [6] stands for this setting: Staphylococcus aureus, SH1000, S. aureus SH1000, 37°C, read-out: BIC50.
Setting [7] is: Staphylococcus aureus, SH1000, S. aureus SH1000, 37°C, read-out: IC50 (planktonic growth).
Setting [8] is: Staphylococcus epidermidis, read-out: BIC50.
Setting [9] is: Staphylococcus epidermidis, read-out: IC50 (planktonic growth).
Setting [10] is: Escherichia coli, TG1, E. coli TG1, 25°C, read-out: BIC50.
Where [11] appears, read: Escherichia coli, TG1, E. coli TG1, 25°C, read-out: IC50 (planktonic growth).
Setting [12] is: Pseudomonas aeruginosa, PA14, P. aeruginosa PA14, 25°C, read-out: BIC50.
Setting [13] is: Pseudomonas aeruginosa, PA14, P. aeruginosa PA14, 25°C, read-out: IC50 (planktonic growth).
Where [14] appears, read: Salmonella enterica, read-out: BIC50.
[15] abbreviates: Salmonella enterica, read-out: IC50 (planktonic growth).
The mark [16] stands for this setting: Serratia liquefaciens, read-out: BIC50.
The mark [17] stands for this setting: Serratia liquefaciens, read-out: IC50 (planktonic growth).
Setting [18] is: Burkholderia cepacia, read-out: BIC50.
Where [19] appears, read: Burkholderia cepacia, read-out: IC50 (planktonic growth).
Where [20] appears, read: read-out: IC50 (planktonic growth).

Like-named read-outs stand apart in the source and are kept apart here.

With `O=c1cc(-c2ccccc2)oc2cc(O)c(O)c(O)c12` [Baicalein, reference compound], the IC50 in the experiment with S. aureus ATCC 6538 (setting [4]) is over 400 µM; in the experiment on S. aureus ATCC 6538 (setting [5]), over 400 µM; in the experiment with S. aureus SH1000 [1] (setting [6]), 77.5 µM; in the experiment on S. aureus SH1000 [1] (setting [7]) it was over 400 µM; in the experiment with S. epidermidis (setting [8]), over 400 µM; in the experiment with S. epidermidis (setting [9]), over 400 µM. The IC50 in the experiment on E. coli TG1 (setting [10]) is 1.2 µM; in the experiment with E. coli TG1 (setting [11]), about 23.5 µM; with P. aeruginosa PA14 (setting [12]), over 400 µM; with P. aeruginosa PA14 (setting [13]), over 400 µM; in experiment [2] (setting [14]), over 400 µM; in experiment [2] (setting [15]) it was over 400 µM. Further, the IC50 in the experiment on S. liquefaciens MG44 (setting [16]) is over 400 µM; with S. liquefaciens MG44 (setting [17]), over 400 µM; in the experiment with B. cepacia LMG1222T (setting [18]), 48.9 µM; with B. cepacia LMG1222T (setting [19]) it was over 400 µM; in the experiment on C. albicans SC5314 (Candida albicans) it was 273 µM. For the same compound, the “concentration at which biofilm formation is inhibited” value in the experiment with P. aeruginosa PAO1 is 20 µM.

For `Nc1ncc(-c2ccccc2)[nH]1` [5-phenyl-2-aminoimidazole], the “effect on transcription of CsgD and regulon genes csgB and adrA” value in the experiment on CsgD is “reduces the transcription of CsgD”.

For `O=C(N/N=C/c1ccc([N+](=O)[O-])o1)c1ccc(O)cc1` [Nifuroxazide, reference compound], the IC50 with S. aureus ATCC 6538 (setting [4]) is 65.5 µM; with S. aureus ATCC 6538 (setting [5]), 125 µM; in the experiment with S. aureus SH1000 [1] (setting [6]) it was over 400 µM; in the experiment with S. aureus SH1000 [1] (setting [7]) it was over 400 µM; with S. epidermidis (setting [8]) it was 46.9 µM; in the experiment with S. epidermidis (setting [9]), about 43.4 µM. Besides, the IC50 in the experiment with E. coli TG1 (setting [10]) is 12.2 µM; in the experiment with E. coli TG1 (setting [11]), over 400 µM; with P. aeruginosa PA14 (setting [12]) it was over 400 µM; in the experiment with P. aeruginosa PA14 (setting [13]) it was over 400 µM; in [2] (setting [14]) it was over 400 µM; in experiment [2] (setting [15]), over 400 µM. Further, the IC50 in the experiment with S. liquefaciens MG44 (setting [16]), in the experiment with S. liquefaciens MG44 (setting [17]), in the experiment on B. cepacia LMG1222T (setting [18]), in the experiment on B. cepacia LMG1222T (setting [19]) and in the experiment on C. albicans SC5314 (Candida albicans) was over 400 µM each time. Also, the “concentration at which biofilm formation is inhibited” value in the experiment with P. aeruginosa PAO1 is 70 µM.

Regarding Tannic acid [reference compound], the IC50 in the experiment on S. aureus ATCC 6538 (S. aureus ATCC 6538, 37°C, planktonic OD600, read-out: IC50 (concentration needed to inhibit planktonic growth by 50%)) is over 400 µM; with S. aureus ATCC 6538 (S. aureus ATCC 6538, 37°C, read-out: BIC50 (concentration needed to inhibit biofilm formation by 50%)) it was about 300 µM; in the experiment with S. aureus SH1000 [1] (S. aureus SH1000, 37°C, read-out: BIC50), 115 µM; in the experiment with S. aureus SH1000 [1] (S. aureus SH1000, 37°C, read-out: IC50 (planktonic growth)) it was over 400 µM; in the experiment on S. epidermidis (read-out: BIC50) it was over 400 µM; with S. epidermidis (setting [20]), over 400 µM. Further, the IC50 was about 195 µM with E. coli TG1 (E. coli TG1, 25°C, read-out: BIC50); over 400 µM with E. coli TG1 (E. coli TG1, 25°C, read-out: IC50 (planktonic growth)); 27.7 µM with P. aeruginosa PA14 (P. aeruginosa PA14, 25°C, read-out: BIC50); over 400 µM in the experiment on P. aeruginosa PA14 (P. aeruginosa PA14, 25°C, read-out: IC50 (planktonic growth)); 18.8 µM in experiment [2] (read-out: BIC50); over 400 µM in experiment [2] (setting [20]). In addition, the IC50 was over 400 µM with S. liquefaciens MG44 (read-out: BIC50); over 400 µM in the experiment on S. liquefaciens MG44 (setting [20]); 1.9 µM in the experiment with B. cepacia LMG1222T (read-out: BIC50); over 400 µM in the experiment on B. cepacia LMG1222T (setting [20]); over 400 µM in the experiment on C. albicans SC5314. In addition, the “concentration at which biofilm formation is inhibited” value with S. aureus SH1000 [3], with E. coli VR50 and in the experiment with E. coli F18 was 20 µM throughout.
